The target in assay [1] is T1, SARS-CoV-2 3CLpro (Severe acute respiratory syndrome coronavirus 2, UniProt P0DTD1). Nature of the assay: biochemical. Type of assay: biochemical.
The target in assay [2] is T1, SARS-CoV-2 3CLpro. Nature of the assay: biochemical. Type of assay: biochemical. The conditions noted are these: for inhibition at 5 µM: 4 h.
[3] abbreviates: with 0.01% Triton X-100; mean ± SD of triplicate; 4 h, 30 °C; read-out: A) EC50 with Triton X-100.
The mark [4] stands for this setting: without Triton X-100; mean ± SD of triplicate; 4 h, 30 °C; read-out: B) EC50 without Triton X-100.
Where [5] appears, read: sheet LOPAC_screen_w_protease, primary screen at 5 µM, mean of two replicates.
[6] abbreviates: sheet LOPAC_screen_w_protease, primary screen at 5 µM, replicate 1.
Setting [7] is: sheet LOPAC_screen_w_protease, primary screen at 5 µM, replicate 2.
[8] abbreviates: EC50 with Triton X-100 / EC50 without Triton X-100, ratio greater than 2 suggests aggregation-based inhibitor.
[9] abbreviates: read-out: Replicate_1 (LOPAC screen with protease).
The mark [10] stands for this setting: read-out: Replicate_2 (LOPAC screen with protease).
Where [11] appears, read: read-out: mean (LOPAC screen with protease).
The mark [12] stands for this setting: sheet LOPAC_screen_w_protease, primary screen at 5 µM, mean of two replicates, read-out: mean (LOPAC screen with protease).
The mark [13] stands for this setting: sheet LOPAC_screen_w_protease, primary screen at 5 µM, replicate 1, read-out: Replicate_1 (LOPAC screen with protease).
The mark [14] stands for this setting: sheet LOPAC_screen_w_protease, primary screen at 5 µM, replicate 2, read-out: Replicate_2 (LOPAC screen with protease).
Where [15] appears, read: with 0.01% Triton X-100, read-out: EC50.

Each structure is given as a SMILES string. Read-outs that look alike come from different tables or passages of the source. Some results are limits rather than exact numbers.

This is an account of results in article PMC7587356, “High-Throughput Screening for Inhibitors of the SARS-CoV-2 Protease Using a FRET-Biosensor” (Molecules, 2020).

The term EC50 denotes the concentration at which the effect is half-maximal.

For `Br.Oc1ccc(C2CNCc3sccc32)cc1O` (centres unmarked) [SKF 89626, reference compound], the “Ratio (A/B)” value at SARS-CoV-2 3CLpro [1] turned out to be 1.2. Moreover, the values for the 50% effective concentration (EC50) at SARS-CoV-2 3CLpro [1] (setting [3]) and at SARS-CoV-2 3CLpro [1] (setting [4]) were 3530 ± 565 nM and 2830 ± 1970 nM, respectively. Also, on SARS-CoV-2 3CLpro [2] (setting [5]), the “mean (LOPAC screen with protease)” value is recorded as 42.8167. Besides, at SARS-CoV-2 3CLpro [2] (setting [6]), the “Replicate_1 (LOPAC screen with protease)” value is recorded as 43.262. On SARS-CoV-2 3CLpro [2] (setting [7]), the “Replicate_2 (LOPAC screen with protease)” value is on record as 42.3715.
For the molecule `CC(C)(C)c1ccc(S(=O)(=O)/C=C/C#N)cc1` [Bay 11-7085, reference compound], on SARS-CoV-2 3CLpro [1] (setting [8]), the “Ratio (A/B)” value came to 2.0. The EC50 on SARS-CoV-2 3CLpro [1] (setting [3]) stood at 1620 ± 103 nM; at SARS-CoV-2 3CLpro [1] (setting [4]), 807 ± 120 nM. In addition, the “mean (LOPAC screen with protease)” value at SARS-CoV-2 3CLpro [2] (setting [5]) worked out at 90.2992. Besides, at SARS-CoV-2 3CLpro [2] (setting [6]), the “Replicate_1 (LOPAC screen with protease)” value stood at 92.052. The “Replicate_2 (LOPAC screen with protease)” value at SARS-CoV-2 3CLpro [2] (setting [7]) was 88.5464.
Take `N[C@@H](CCC(=O)N[C@@H](CSN=O)C(=O)NCC(=O)O)C(=O)O` [S-Nitrosoglutathione, reference compound]: the “Ratio (A/B)” value at SARS-CoV-2 3CLpro [1] turned out to be 1.5. For the same molecule, the EC50 at SARS-CoV-2 3CLpro [1] (A) EC50 with Triton X-100) was 2290 ± 245 nM; on SARS-CoV-2 3CLpro [1] (B) EC50 without Triton X-100), 1490 ± 627 nM. Besides, the inhibition at 5 µM was 44.1% at SARS-CoV-2 3CLpro [2] (setting [9]), 41.7% at SARS-CoV-2 3CLpro [2] (setting [10]) and 42.9% on SARS-CoV-2 3CLpro [2] (setting [11]).
Take `O=C1C(SCCO)=C(SCCO)C(=O)c2ccccc21` [NSC 95397, reference compound]: the EC50 on SARS-CoV-2 3CLpro [1] (setting [3]) and on SARS-CoV-2 3CLpro [1] (setting [4]) was > 20000 nM throughout. Further, on SARS-CoV-2 3CLpro [2] (setting [5]), the “mean (LOPAC screen with protease)” value is 19.1086. Further, on SARS-CoV-2 3CLpro [2] (setting [6]), the “Replicate_1 (LOPAC screen with protease)” value is 20.9168. The “Replicate_2 (LOPAC screen with protease)” value at SARS-CoV-2 3CLpro [2] (setting [7]) worked out at 17.3004.
On to `Oc1ccccc1O` [Pyrocatechol, reference compound], for which the “Ratio (A/B)” value on SARS-CoV-2 3CLpro [1] was determined as 1.0. In addition, the figures for the EC50 at SARS-CoV-2 3CLpro [1] (setting [3]) and at SARS-CoV-2 3CLpro [1] (setting [4]) were 4040 ± 1420 nM and 4090 ± 1220 nM, respectively. In addition, the “mean (LOPAC screen with protease)” value at SARS-CoV-2 3CLpro [2] (setting [5]) stood at 52.6956. Further, the “Replicate_1 (LOPAC screen with protease)” value at SARS-CoV-2 3CLpro [2] (setting [6]) is reported as 53.9412. Also, the “Replicate_2 (LOPAC screen with protease)” value on SARS-CoV-2 3CLpro [2] (setting [7]) is 51.45.
On to `N#C/C(=C\c1ccc(O)c(O)c1)C(N)=S` [Tyrphostin 47, reference compound], for which the EC50 is > 20000 nM at SARS-CoV-2 3CLpro [1] (setting [3]) and 15800 ± 10100 nM at SARS-CoV-2 3CLpro [1] (setting [4]). Further, the inhibition at 5 µM turned out to be 28.2% on SARS-CoV-2 3CLpro [2] (setting [12]), 30.5% at SARS-CoV-2 3CLpro [2] (setting [13]) and 25.9% on SARS-CoV-2 3CLpro [2] (setting [14]).
As to `O=C1O/C(=C/Br)CCC1c1cccc2ccccc12` (centres unmarked) [Bromoenol lactone, reference compound], the “Ratio (A/B)” value at SARS-CoV-2 3CLpro [1] was 1.1. The figures for the EC50 on SARS-CoV-2 3CLpro [1] (setting [3]) and on SARS-CoV-2 3CLpro [1] (setting [4]) were 817 ± 121 nM and 757 ± 73 nM, respectively. Besides, the figures for the inhibition at 5 µM at SARS-CoV-2 3CLpro [2] (setting [9]), on SARS-CoV-2 3CLpro [2] (setting [10]) and at SARS-CoV-2 3CLpro [2] (setting [11]) were 100%, 99.7% and 99.9%, respectively.
`CCOC(=O)[C@]12CC1/C(=N\O)c1ccccc1O2` (mixture of isomers) [CPCCOEt, reference compound]: the EC50 at SARS-CoV-2 3CLpro [1] (setting [3]) and on SARS-CoV-2 3CLpro [1] (setting [4]) was > 20000 nM each time. The inhibition at 5 µM on SARS-CoV-2 3CLpro [2] (setting [12]) came out at 26.9%; on SARS-CoV-2 3CLpro [2] (setting [13]) it was 0.406%; on SARS-CoV-2 3CLpro [2] (setting [14]), 53.3%.
Consider `O=c1cc(O)cc(/C=C/c2ccc(O)c(O)c2)o1` [Hispidin, reference compound], for which the “Ratio (A/B)” value at SARS-CoV-2 3CLpro [1] is given as 2.8. In addition, the EC50 at SARS-CoV-2 3CLpro [1] (A) EC50 with Triton X-100) stood at 5000 ± 554 nM; at SARS-CoV-2 3CLpro [1] (B) EC50 without Triton X-100) it was 1810 ± 828 nM. The inhibition at 5 µM on SARS-CoV-2 3CLpro [2] (setting [9]) is 46.3%; at SARS-CoV-2 3CLpro [2] (setting [10]), 38.9%; at SARS-CoV-2 3CLpro [2] (setting [11]), 42.6%.
As to `Oc1cc(O)cc(/C=C/c2ccc(O)c(O)c2)c1` [Piceatannol, reference compound], the “Ratio (A/B)” value on SARS-CoV-2 3CLpro [1] was found to be 1.3. For the same molecule, the figures for the 50% effective concentration (EC50) at SARS-CoV-2 3CLpro [1] (setting [3]) and on SARS-CoV-2 3CLpro [1] (setting [4]) were 569 ± 75 nM and 455 ± 113 nM, respectively. The inhibition at 5 µM on SARS-CoV-2 3CLpro [2] (setting [12]) was 92.3%; on SARS-CoV-2 3CLpro [2] (setting [13]) it was 93.6%; on SARS-CoV-2 3CLpro [2] (setting [14]) it was 91.1%.
Consider `CN(N=O)c1cc(O)ccc1O` [Dephostatin, reference compound], for which the “Ratio (A/B)” value at SARS-CoV-2 3CLpro [1] is 2.2. Also, the EC50 on SARS-CoV-2 3CLpro [1] (setting [3]) came out at 5030 ± 1220 nM; on SARS-CoV-2 3CLpro [1] (setting [4]), 2280 ± 619 nM. The inhibition at 5 µM is 35.5% on SARS-CoV-2 3CLpro [2] (setting [12]), 36.5% on SARS-CoV-2 3CLpro [2] (setting [13]) and 34.6% on SARS-CoV-2 3CLpro [2] (setting [14]).
In the case of `Oc1cc2c(cc1O)CN(C(=S)NCCc1ccc(Cl)cc1)CCC2` [Capsazepine, reference compound], on SARS-CoV-2 3CLpro [1], the “Ratio (A/B)” value stood at 1.4. Besides, the EC50 was determined as 944 ± 98 nM at SARS-CoV-2 3CLpro [1] (A) EC50 with Triton X-100) and 668 ± 330 nM on SARS-CoV-2 3CLpro [1] (B) EC50 without Triton X-100). Moreover, the inhibition at 5 µM at SARS-CoV-2 3CLpro [2] (setting [9]) worked out at 91.9%; at SARS-CoV-2 3CLpro [2] (setting [10]) it was 90.5%; at SARS-CoV-2 3CLpro [2] (setting [11]) it was 91.2%.
For `N#CC(C#N)=C(N)/C(C#N)=C/c1cc(O)c(O)c(O)c1` [Tyrphostin 51, reference compound], at SARS-CoV-2 3CLpro [1], the “Ratio (A/B)” value is reported as 2.1. Also, the EC50 is 19000 ± 14200 nM at SARS-CoV-2 3CLpro [1] (setting [3]) and 9120 ± 5300 nM at SARS-CoV-2 3CLpro [1] (setting [4]). Besides, the inhibition at 5 µM on SARS-CoV-2 3CLpro [2] (setting [9]) amounted to 28%; at SARS-CoV-2 3CLpro [2] (setting [10]), 28.9%; at SARS-CoV-2 3CLpro [2] (setting [11]) it was 28.5%.
Take `COc1ccc2c(c1)CC[C@@H]1[C@@H]2CC[C@]2(C)[C@@H](NCCCCCCN3C(=O)C=CC3=O)CC[C@@H]12` [U-73122, reference compound]: the “Ratio (A/B)” value at SARS-CoV-2 3CLpro [1] (setting [8]) amounted to 2.0. The EC50 was 694 ± 82 nM at SARS-CoV-2 3CLpro [1] (setting [3]) and 350 ± 17 nM on SARS-CoV-2 3CLpro [1] (setting [4]). In addition, at SARS-CoV-2 3CLpro [2] (setting [5]), the “mean (LOPAC screen with protease)” value was 88.5998. For the same molecule, the “Replicate_1 (LOPAC screen with protease)” value at SARS-CoV-2 3CLpro [2] (setting [6]) is given as 89.4118. Also, at SARS-CoV-2 3CLpro [2] (setting [7]), the “Replicate_2 (LOPAC screen with protease)” value is 87.7878.
Consider `O=C(O)c1cc[c]([Hg][Cl])cc1` [4-Chloromercuribenzoic acid, reference compound], for which the “Ratio (A/B)” value on SARS-CoV-2 3CLpro [1] was found to be 0.9. Further, the EC50 at SARS-CoV-2 3CLpro [1] (setting [15]) came to 85 nM; at SARS-CoV-2 3CLpro [1] (setting [4]) it was 95 ± 7 nM. Besides, the “mean (LOPAC screen with protease)” value at SARS-CoV-2 3CLpro [2] (setting [5]) amounted to 103.38. Moreover, the “Replicate_1 (LOPAC screen with protease)” value on SARS-CoV-2 3CLpro [2] (setting [6]) is 104.085. In addition, the “Replicate_2 (LOPAC screen with protease)” value on SARS-CoV-2 3CLpro [2] (setting [7]) is listed as 102.675.
As to `CC1(NCC(O)COc2cccc3[nH]ccc23)CCC(C(C)(C)NC(=O)CBr)CC1` (racemic) [(±)-Pindobind, reference compound], the EC50 on SARS-CoV-2 3CLpro [1] (setting [3]) is 4690 ± 3320 nM; on SARS-CoV-2 3CLpro [1] (setting [4]) it was > 20000 nM. At SARS-CoV-2 3CLpro [2] (setting [5]), the “mean (LOPAC screen with protease)” value turned out to be 33.6627. Besides, the “Replicate_1 (LOPAC screen with protease)” value at SARS-CoV-2 3CLpro [2] (setting [6]) is recorded as 33.8938. Further, the “Replicate_2 (LOPAC screen with protease)” value at SARS-CoV-2 3CLpro [2] (setting [7]) was determined as 33.4316.
Turning to `N=C1Sc2ccccc2C2=NCCCN12` [PD 404,182, reference compound], the “Ratio (A/B)” value at SARS-CoV-2 3CLpro [1] is listed as 1.4. Also, the EC50 at SARS-CoV-2 3CLpro [1] (setting [15]) turned out to be 81 nM; on SARS-CoV-2 3CLpro [1] (setting [4]), 60 ± 12 nM. The inhibition at 5 µM on SARS-CoV-2 3CLpro [2] (setting [12]) worked out at 101%; at SARS-CoV-2 3CLpro [2] (setting [13]) it was 101%; at SARS-CoV-2 3CLpro [2] (setting [14]) it was 100%.
